Reference: paper PMC4621896 (Oncotarget, 2015)
pIC50: −log10 of the molar value. Read-outs that look alike come from different tables or passages of the source.

Tests used:
[1] = molecular target: YopH from Yersinia enterocolitica (Yersinia enterocolitica, UniProt P15273); assay: biochemical
[2] = molecular target: T1, YopH (Yersinia enterocolitica, UniProt P15273); type: biochemical
[3] = molecular target: YopH protein tyrosine phosphatase from Yersinia pestis (Yersinia pestis, UniProt O68720); assay: biochemical
[4] = molecular target: T2, Human recombinant CD45 (Homo sapiens, UniProt P08575); assay: biochemical
T2 construct: purchased Sigma-Aldrich
T2 sequence (P08575 609-1306 limits assumed): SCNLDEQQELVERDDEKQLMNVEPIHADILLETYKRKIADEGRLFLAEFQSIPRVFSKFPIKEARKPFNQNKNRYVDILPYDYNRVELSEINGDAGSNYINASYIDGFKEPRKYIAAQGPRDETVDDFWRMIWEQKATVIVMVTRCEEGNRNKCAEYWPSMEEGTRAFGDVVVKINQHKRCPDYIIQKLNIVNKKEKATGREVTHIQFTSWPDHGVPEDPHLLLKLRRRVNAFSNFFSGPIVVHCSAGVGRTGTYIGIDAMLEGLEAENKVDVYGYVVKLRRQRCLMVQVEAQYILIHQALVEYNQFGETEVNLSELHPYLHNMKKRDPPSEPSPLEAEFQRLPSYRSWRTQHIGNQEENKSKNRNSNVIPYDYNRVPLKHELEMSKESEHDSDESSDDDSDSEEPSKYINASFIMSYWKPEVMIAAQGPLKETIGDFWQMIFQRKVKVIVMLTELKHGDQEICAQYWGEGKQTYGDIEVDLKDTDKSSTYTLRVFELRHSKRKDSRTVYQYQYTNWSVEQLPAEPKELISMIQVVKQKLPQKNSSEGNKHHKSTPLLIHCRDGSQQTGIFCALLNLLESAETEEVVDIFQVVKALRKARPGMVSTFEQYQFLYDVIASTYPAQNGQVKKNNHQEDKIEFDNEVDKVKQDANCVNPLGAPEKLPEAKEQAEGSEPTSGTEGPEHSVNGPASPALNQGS

[5] = molecular target: YopH Y. enterocolitica (Yersinia enterocolitica, UniProt P15273); type: biochemical
[6] = molecular target: T1, YopH; type: biochemical; remark: listed apart in the source

T1 sequence (P15273 whole entry, looked up): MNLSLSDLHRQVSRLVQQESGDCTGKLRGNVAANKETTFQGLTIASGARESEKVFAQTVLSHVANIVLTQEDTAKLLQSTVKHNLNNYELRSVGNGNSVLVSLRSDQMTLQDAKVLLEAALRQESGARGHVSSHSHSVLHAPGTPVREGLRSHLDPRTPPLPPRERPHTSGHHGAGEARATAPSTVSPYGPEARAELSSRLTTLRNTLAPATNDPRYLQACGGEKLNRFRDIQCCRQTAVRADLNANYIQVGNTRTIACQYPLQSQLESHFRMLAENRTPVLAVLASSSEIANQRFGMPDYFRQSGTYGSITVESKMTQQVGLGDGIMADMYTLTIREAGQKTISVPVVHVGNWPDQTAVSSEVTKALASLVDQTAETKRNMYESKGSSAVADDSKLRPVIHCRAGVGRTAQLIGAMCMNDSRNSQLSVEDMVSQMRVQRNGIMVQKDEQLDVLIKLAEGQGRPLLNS
Sequence of YopH protein tyrosine phosphatase from Yersinia pestis (O68720 1-468): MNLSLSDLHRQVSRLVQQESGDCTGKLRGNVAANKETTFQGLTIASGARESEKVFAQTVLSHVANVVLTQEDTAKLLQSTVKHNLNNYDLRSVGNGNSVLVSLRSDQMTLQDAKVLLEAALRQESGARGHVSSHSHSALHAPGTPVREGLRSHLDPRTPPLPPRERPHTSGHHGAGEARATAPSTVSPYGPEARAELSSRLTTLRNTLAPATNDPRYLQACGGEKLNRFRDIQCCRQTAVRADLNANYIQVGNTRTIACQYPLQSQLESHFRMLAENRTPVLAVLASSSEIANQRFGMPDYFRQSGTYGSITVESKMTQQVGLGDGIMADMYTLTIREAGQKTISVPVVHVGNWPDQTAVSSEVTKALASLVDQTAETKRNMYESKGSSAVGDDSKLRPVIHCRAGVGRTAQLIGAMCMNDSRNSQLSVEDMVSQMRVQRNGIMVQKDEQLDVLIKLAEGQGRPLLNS
Sequence of YopH from Yersinia enterocolitica (P15273 whole entry, looked up): as the sequence (P15273 whole entry, looked up) above
Sequence of YopH Y. enterocolitica (P15273 whole entry, looked up): as above

Compound	pIC50 [1]	Effect of catalase pretreatment on ATA induced YopH inactivation [2]	pIC50 [3]	Effect of catalase pretreatment on ATA induced CD45 inactivation [4]	pIC50 [4]	Reversibility of ATA induced inhibition of YopH [5]	Effect of catalase on ATA induced decrease of thiol adducts [6]	Reduction of thiol-NBD adducts compared to control [6]	pIC50 ([1]; read-out: IC50 value, YopH Y.entorocolitica inhibition)	pIC50 ([3]; read-out: IC50 value, YopH Y.pestis inhibition)	pIC50 ([4]; read-out: IC50 value, CD45 inhibition)
O=C(O)C1=CC(=C(c2ccc(O)c(C(=O)O)c2)c2ccc(O)c(C(=O)O)c2)C=CC1=O [ATA, aurintricarboxylic acid]	7.00	almost completely protected	8.00	almost completely protected	6.70	completely reversed	completely prevented	over 50%	–	–	–
CCCCCCCC(=O)OO [peroctanoic acid]	–	–	–	–	–	–	–	–	7.41	7.39	7.60
